# Test system: subject with uncontrolled type II diabetes / non insulin-dependent diabetes
# Assay: Anecdotal studies: hypoglycemic effect, blood glucose level of diabetic subjects
# Format: in vivo, human
# Conditions: before capsules
smiles,measurement,setting,value
CN(C)C(=N)N=C(N)N [metformin],daily blood glucose level (base level) on metformin alone,"study 2: person, 61 kg, non insulin-dependent diabetes, metformin 500 mg BID",234 mg/dL
same,daily blood glucose level (base level) on metformin alone,"study 3: person, 67 kg, non insulin-dependent uncontrolled diabetic, metformin 500 mg, three tablets per day",261 mg/dL
